Literature values in patent publication US6358910B1, “Detergent compositions” (Lever Brothers Company, divison of Conopco, Inc., priority 1997, dated 2002).

Conditions: grams of solid to form a saturated solution in 100 grams of water at 20° C.
For O=BO[O-].[Na+] [Sodium perborate anhydrous], the “Water Solubility (g/100 g)” value is listed as 3.7 g/100 g.
For NC(N)=O [Urea], the “Water Solubility (g/100 g)” value is given as greater than 100 g/100 g.
In the case of O=P(O)(O)OP(=O)(O)OP(=O)(O)O [Sodium tripolyphosphate anhydrous], the “Water Solubility (g/100 g)” value is listed as 15 g/100 g.
